Assay results reported in US10405547B2, “Substituted cyclic amides as herbicides” (FMC Corporation, priority 2015, dated 2019).

Experiments:
Type in all cases: in vivo
[1] = test system: barnyardgrass (Echinochloa crus-galli); test: Test A preemergence, barnyardgrass; conditions: 0 to 100 scale (0 no effect, 100 complete control)
Procedure, shortened: (§1)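 Visual injury on a 0 to 100 scale, about 10 days post-spray in the greenhouse. Postemergence plants measured 2–10 cm at one to two leaves; preemergence pots received a directed soil spray. Soil was a loam–sand blend.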

[2] = test system: kochia (Kochia scoparia); test: Test A preemergence, kochia; conditions: 0 to 100 scale (0 no effect, 100 complete control)
Procedure, shortened: as §1

[3] = test system: ragweed (common ragweed, Ambrosia elatior); test: Test A preemergence, ragweed; conditions: 0 to 100 scale (0 no effect, 100 complete control)
Procedure, shortened: as §1

[4] = test system: ryegrass, Italian (Lolium multiflorum); test: Test A preemergence, Italian ryegrass; conditions: 0 to 100 scale (0 no effect, 100 complete control)
Procedure, shortened: as §1

[5] = test system: foxtail, giant (Setaria faberii); test: Test A preemergence, giant foxtail; conditions: 0 to 100 scale (0 no effect, 100 complete control)
Procedure, shortened: as §1

[6] = test system: pigweed (Amaranthus retroflexus); test: Test A preemergence, pigweed; conditions: 0 to 100 scale (0 no effect, 100 complete control)
Procedure, shortened: as §1

[7] = test system: barnyardgrass (Echinochloa crus-galli); test: Test A postemergence, barnyardgrass; conditions: visual injury, 0 to 100 scale (0 no effect, 100 complete control), approximately 10 days
Procedure, shortened: as §1

[8] = test system: kochia (Kochia scoparia); test: Test A postemergence, kochia; conditions: visual injury, 0 to 100 scale (0 no effect, 100 complete control), approximately 10 days
Procedure, shortened: as §1

[9] = test system: ragweed (common ragweed, Ambrosia elatior); test: Test A postemergence, ragweed; conditions: visual injury, 0 to 100 scale (0 no effect, 100 complete control), approximately 10 days
Procedure, shortened: as §1

[10] = test system: ryegrass, Italian (Lolium multiflorum); test: Test A postemergence, Italian ryegrass; conditions: visual injury, 0 to 100 scale (0 no effect, 100 complete control), approximately 10 days
Procedure, shortened: as §1

[11] = test system: foxtail, giant (Setaria faberii); test: Test A postemergence, giant foxtail; conditions: visual injury, 0 to 100 scale (0 no effect, 100 complete control), approximately 10 days
Procedure, shortened: as §1

[12] = test system: pigweed (Amaranthus retroflexus); test: Test A postemergence, pigweed; conditions: visual injury, 0 to 100 scale (0 no effect, 100 complete control), approximately 10 days
Procedure, shortened: as §1

[13] = test system: blackgrass (Alopecurus myosuroides); test: Test A postemergence, blackgrass; conditions: visual injury, 0 to 100 scale (0 no effect, 100 complete control), approximately 10 days
Procedure, shortened: as §1

[14] = test system: galium (catchweed bedstraw, Galium aparine); test: Test A postemergence, galium; conditions: visual injury, 0 to 100 scale (0 no effect, 100 complete control), approximately 10 days
Procedure, shortened: as §1

[15] = test system: wheat (Triticum aestivum); test: Test A postemergence, wheat; conditions: visual injury, 0 to 100 scale (0 no effect, 100 complete control), approximately 10 days
Procedure, shortened: as §1

[16] = test system: corn (Zea mays); test: Test A postemergence, corn; conditions: visual injury, 0 to 100 scale (0 no effect, 100 complete control), approximately 10 days
Procedure, shortened: as §1

[17] = test system: rice (Oryza sativa); test: Test B flooded paddy test, rice; conditions: 250 g ai/ha, applied to paddy water, visual rating after 13 to 15 days, scale 0 (no effect) to 100 (complete control)
Procedure, shortened: (§2)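 Pots were flooded to 3 cm above the soil surface at treatment, compound applied directly to the paddy water, and that depth held throughout. Plants were kept in a greenhouse for 13 to 15 days, then visually rated against untreated controls.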

[18] = test system: sedge, umbrella (small-flower umbrella sedge, Cyperus difformis); test: Test B flooded paddy test, umbrella sedge; conditions: 250 g ai/ha, applied to paddy water, visual rating after 13 to 15 days, scale 0 (no effect) to 100 (complete control)
Procedure, shortened: as §2

[19] = test system: ducksalad (Heteranthera limosa); test: Test B flooded paddy test, ducksalad; conditions: 250 g ai/ha, applied to paddy water, visual rating after 13 to 15 days, scale 0 (no effect) to 100 (complete control)
Procedure, shortened: as §2

[20] = test system: barnyardgrass (Echinochloa crus-galli); test: Test B flooded paddy test, barnyardgrass; conditions: 250 g ai/ha, applied to paddy water, visual rating after 13 to 15 days, scale 0 (no effect) to 100 (complete control)
Procedure, shortened: as §2

SMILES	Plant response rating, Barnyardgrass ([1]; 125 g ai/ha)	Plant response rating, Barnyardgrass ([1]; 500 g ai/ha)	Plant response rating, Kochia ([2]; 125 g ai/ha)	Plant response rating, Kochia ([2]; 500 g ai/ha)	Plant response rating, Ragweed ([3]; 125 g ai/ha)	Plant response rating, Ragweed ([3]; 500 g ai/ha)	Plant response rating, Ryegrass, Italian ([4]; 125 g ai/ha)	Plant response rating, Ryegrass, Italian ([4]; 500 g ai/ha)	Plant response rating, Foxtail, Giant ([5]; 125 g ai/ha)	Plant response rating, Foxtail, Giant ([5]; 500 g ai/ha)	Plant response rating, Pigweed ([6]; 125 g ai/ha)	Plant response rating, Pigweed ([6]; 500 g ai/ha)	Plant response rating, Barnyardgrass ([7]; 125 g ai/ha)	Plant response rating, Barnyardgrass ([7]; 500 g ai/ha)	Plant response rating, Kochia ([8]; 125 g ai/ha)	Plant response rating, Kochia ([8]; 500 g ai/ha)	Plant response rating, Ragweed ([9]; 125 g ai/ha)	Plant response rating, Ragweed ([9]; 500 g ai/ha)	Plant response rating, Ryegrass, Italian ([10]; 125 g ai/ha)	Plant response rating, Ryegrass, Italian ([10]; 500 g ai/ha)	further results
CN(C)N=Cc1cccc(C2CN(C)C(=O)C2C(=O)Nc2ccccc2F)c1 (stereo not drawn) [Compound 54]	0	20	0	0	0	0	0	0	0	70	0	0	0	30	0	0	0	0	0	0	Plant response rating, Foxtail, Giant ([11]; 125 g ai/ha): 0; Plant response rating, Foxtail, Giant ([11]; 500 g ai/ha): 20; Plant response rating, Pigweed ([12]; 125 g ai/ha): 0; Plant response rating, Pigweed ([12]; 500 g ai/ha): 0; Plant response rating, Blackgrass ([13]; 125 g ai/ha): 0; Plant response rating, Blackgrass ([13]; 500 g ai/ha): 0; Plant response rating, Galium ([14]; 125 g ai/ha): 0; Plant response rating, Galium ([14]; 500 g ai/ha): 0; Plant response rating, Wheat ([15]; 125 g ai/ha): 0; Plant response rating, Wheat ([15]; 500 g ai/ha): 0; Plant response rating, Corn ([16]; 125 g ai/ha): 0; Plant response rating, Corn ([16]; 500 g ai/ha): 0; Plant response rating, Rice (Flood) [17]: 0; Plant response rating, Sedge, Umbrella (Flood) [18]: 0; Plant response rating, Ducksalad (Flood) [19]: 0; Plant response rating, Barnyardgrass (Flood) [20]: 0
O=C1NCC(c2cccc(OCC3OCCO3)c2)C1C(=O)Nc1ccccc1Cl (stereo not drawn) [Compound 6]	20	80	0	0	0	20	0	0	70	90	60	50	0	70	0	0	0	0	0	0	Plant response rating, Foxtail, Giant ([11]; 125 g ai/ha): 0; Plant response rating, Foxtail, Giant ([11]; 500 g ai/ha): 70; Plant response rating, Pigweed ([12]; 125 g ai/ha): 0; Plant response rating, Pigweed ([12]; 500 g ai/ha): 0; Plant response rating, Blackgrass ([13]; 125 g ai/ha): 0; Plant response rating, Blackgrass ([13]; 500 g ai/ha): 20; Plant response rating, Galium ([14]; 125 g ai/ha): 0; Plant response rating, Galium ([14]; 500 g ai/ha): 0; Plant response rating, Wheat ([15]; 125 g ai/ha): 0; Plant response rating, Wheat ([15]; 500 g ai/ha): 20; Plant response rating, Corn ([16]; 125 g ai/ha): 0; Plant response rating, Corn ([16]; 500 g ai/ha): 20; Plant response rating, Rice (Flood) [17]: 0; Plant response rating, Sedge, Umbrella (Flood) [18]: 0; Plant response rating, Ducksalad (Flood) [19]: 0; Plant response rating, Barnyardgrass (Flood) [20]: 0
